Data published in publication PMC5442763, “Selective Inhibition of ADAM17 Efficiently Mediates Glycoprotein Ibα Retention During Ex Vivo Generation of Human Induced Pluripotent Stem Cell‐Derived Platelets” (Stem Cells Translational Medicine, 2016).
Peptide text beside a SMILES is read from it. * marks the point of attachment. Cbz = O=C(OCc1ccccc1)*; CH2F = FC*

Tests used:
[1] = system: human iPSC-derived MKs and platelets; assay: Generation of MKs and platelets from human iPSC-derived HPCs at 37°C, flow cytometry; assay type: cell-based; details: for GPIbα retention by iPSC-derived platelets, inhibitor only during platelet production phase: days 21–23 or 24, KP-457 15, BIRB796 10, U0126 10, BMS345541 10, Z-VAD 10, Ro31-8220 3 μmol/l; for number of CD41a+ total iPSC platelets / retention of GPIbα expression on CD41a+ iPSC-derived platelets / number of CD41a+ iPSC-derived MKs: KP-457 15 μmol/l, GM-6001 50 μmol/l, p38 MAP kinase inhibitor 10 μmol/l; for number of CD41a+ iPSC-derived MKs: MK differentiation and platelet production phases
Protocol: Directed differentiation to MKs and platelets from iPSCs and ESCs was performed as described previously. Briefly, 3 × 10^4 HPCs derived from iPS‐sacs on C3H10T1/2 feeder cells in the presence of 20 ng/ml vascular endothelial growth factor were transferred on day 14 of culture onto C3H10T1/2 feeder cells in differentiation medium supplemented with 50 ng/ml stem cell factor, 100 ng/ml thrombopoietin, 25 U/ml heparin sodium, and test compounds at 24°C or 37°C. The medium was refreshed every 3 days, and nonadherent cells were collected and analyzed on days 22–24.
(§1) Flow cytometric analysis was performed as previously described. Briefly, iPSC‐ and ESC‐derived MKs on days 22–24 and platelets in their supernatants were stained with combinations of antibodies for 30 minutes on ice (for MKs) or at room temperature (for platelets). Samples of MKs/platelets were then washed, diluted with staining medium (phosphate‐buffered saline containing 3% fetal bovine serum), and analyzed using flow cytometry (FACSAria; BD). Trucount tubes (BD) were used to quantify the MKs and platelets.

human washed platelets = assay: CCCP-induced GPIbα shedding from washed platelets; assay type: cell-based; details: relative to maximum inhibition elicited by KP-457 or GM-6001
Protocol: as §1
Washed platelets were prepared as described elsewhere.

platelet aggregation = assay: Platelet aggregation induced by thrombin or collagen; assay type: cell-based
mouse platelets = system: mouse platelets; design: method as in PMID 23801636; details: cited from earlier work
Human ADAM17 [2] = target: T1, Human ADAM17 (Homo sapiens, UniProt P78536); assay: MMP and ADAM activity assay (fluorescence-based, cell-free): ADAM17; assay type: biochemical; details: cell-free fluorescence assay, TNF-α cleavage site substrate
T1 construct: purchased R&D Systems
T1 sequence (P78536 215-824): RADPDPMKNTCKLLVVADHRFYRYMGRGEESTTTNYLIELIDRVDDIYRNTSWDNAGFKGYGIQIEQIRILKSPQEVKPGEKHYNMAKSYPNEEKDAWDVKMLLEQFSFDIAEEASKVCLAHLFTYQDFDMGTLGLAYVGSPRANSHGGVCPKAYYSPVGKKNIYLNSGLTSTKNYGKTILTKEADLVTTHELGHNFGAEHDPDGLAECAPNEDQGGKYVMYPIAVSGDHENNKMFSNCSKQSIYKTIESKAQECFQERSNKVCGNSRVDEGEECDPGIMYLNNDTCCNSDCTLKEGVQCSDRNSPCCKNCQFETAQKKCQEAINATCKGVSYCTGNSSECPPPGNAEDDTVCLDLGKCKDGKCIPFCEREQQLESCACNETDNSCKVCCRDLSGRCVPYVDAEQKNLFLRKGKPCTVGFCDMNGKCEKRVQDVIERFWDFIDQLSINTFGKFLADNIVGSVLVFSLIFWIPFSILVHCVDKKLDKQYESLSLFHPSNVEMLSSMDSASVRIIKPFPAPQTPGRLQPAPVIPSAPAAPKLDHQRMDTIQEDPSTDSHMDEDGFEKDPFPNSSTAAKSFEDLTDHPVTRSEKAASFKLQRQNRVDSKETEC
From the text: (§2) Human ADAM17, ADAM10, and MMP17 were from R&D Systems (Minneapolis, MN, http://www.rndsystems.com), and human MMP1, MMP2, MMP3, MMP8, MMP9, MMP13, and MMP14 were from EMD Millipore. MMP1, MMP2, MMP8, MMP9, MMP13, and MMP17 were activated using p‐aminophenylmercuric acetate (Sigma‐Aldrich) before testing. Fluorogenic substrates for measuring activity of ADAM10 and ADAM17 [Nma‐[…](Dnp)r‐NH2, based on the cleavage site of TNF‐α]; MMP1, MMP9, MMP13, and MMP14 [Dnp‐P‐Cha‐GC(Me)HAK(N‐Me‐Abz)‐NH2]; MMP3 [MOCAc‐RPKPVE‐Nva‐WRK(Dnp)‐NH2]; and MMP2, MMP8, and MMP17 [MOCAc‐PLGL‐A2pr(Dnp)‐AR‐NH2] were all provided by Peptide Institute (Osaka, Japan, https://www.peptide.co.jp/en) and used as substrates. In addition, inhibitory activities were measured using LC/MS/MS with a GPIbα‐based substrate peptide ([…]), a C terminal‐based standard peptide ([…]), and an internal standard peptide ([…]). These peptides were synthetized by Scrum (Tokyo, Japan, http://www.scrum‐net.co.jp/english/top_en.htm).

human ADAM10 = target: T2, human ADAM10 (Homo sapiens, UniProt O14672); assay: MMP and ADAM activity assay (fluorescence-based): ADAM10; assay type: biochemical; details: cell-free fluorescence assay
T2 construct: purchased R&D Systems
T2 sequence (O14672 214-748): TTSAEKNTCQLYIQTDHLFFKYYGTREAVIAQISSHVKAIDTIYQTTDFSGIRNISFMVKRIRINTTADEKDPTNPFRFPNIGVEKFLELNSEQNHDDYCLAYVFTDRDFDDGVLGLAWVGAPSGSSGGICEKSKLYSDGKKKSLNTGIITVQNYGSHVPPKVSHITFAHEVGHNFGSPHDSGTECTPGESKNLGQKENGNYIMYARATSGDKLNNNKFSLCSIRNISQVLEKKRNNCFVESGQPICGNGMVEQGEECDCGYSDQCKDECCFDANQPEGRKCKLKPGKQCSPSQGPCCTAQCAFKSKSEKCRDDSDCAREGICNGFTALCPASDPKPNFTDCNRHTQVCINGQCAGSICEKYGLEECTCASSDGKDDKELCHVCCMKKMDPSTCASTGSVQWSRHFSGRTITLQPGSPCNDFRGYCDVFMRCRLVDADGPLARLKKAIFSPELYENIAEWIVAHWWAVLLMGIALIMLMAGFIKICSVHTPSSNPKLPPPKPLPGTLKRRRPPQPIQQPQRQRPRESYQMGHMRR
Protocol: as §2, with “KP‐457 and GM‐6001 were tested for their ability to inhibit MMP‐ and ADAM‐catalyzed cleavage of substrates in a fluorescence‐based assay. Human” for “Human”

human MMP3 = target: T3, human MMP3 (Homo sapiens, UniProt P08254); assay: MMP and ADAM activity assay (fluorescence-based): MMP3; assay type: biochemical; details: cell-free fluorescence assay
T3 construct: purchased EMD Millipore
T3 sequence (P08254 100-477): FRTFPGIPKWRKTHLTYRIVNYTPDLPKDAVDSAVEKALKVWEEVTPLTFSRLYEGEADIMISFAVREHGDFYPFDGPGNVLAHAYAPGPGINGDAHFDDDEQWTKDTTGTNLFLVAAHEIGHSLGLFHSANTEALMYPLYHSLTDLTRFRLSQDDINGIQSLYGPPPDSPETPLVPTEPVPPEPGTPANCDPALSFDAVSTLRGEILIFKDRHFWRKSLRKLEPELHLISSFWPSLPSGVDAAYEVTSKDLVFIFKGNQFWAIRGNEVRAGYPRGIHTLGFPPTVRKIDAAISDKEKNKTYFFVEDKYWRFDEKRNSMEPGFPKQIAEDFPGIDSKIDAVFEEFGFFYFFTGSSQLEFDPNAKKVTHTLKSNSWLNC
Protocol: as §2, with “KP‐457 and GM‐6001 were tested for their ability to inhibit MMP‐ and ADAM‐catalyzed cleavage of substrates in a fluorescence‐based assay. Human” for “Human”

human MMP13 = target: T4, human MMP13 (Homo sapiens, UniProt P45452); assay: MMP and ADAM activity assay (fluorescence-based): MMP13; assay type: biochemical; details: cell-free fluorescence assay
T4 construct: purchased EMD Millipore
From the text: as §2

human MMP14 = target: T5, human MMP14 (Homo sapiens, UniProt P50281); assay: MMP and ADAM activity assay (fluorescence-based): MMP14; assay type: biochemical; details: cell-free fluorescence assay
T5 construct: purchased EMD Millipore
Protocol: as §2, with “KP‐457 and GM‐6001 were tested for their ability to inhibit MMP‐ and ADAM‐catalyzed cleavage of substrates in a fluorescence‐based assay. Human” for “Human”

human MMP17 = target: T6, human MMP17 (Homo sapiens, UniProt Q9ULZ9); assay: MMP and ADAM activity assay (fluorescence-based): MMP17; assay type: biochemical; details: cell-free fluorescence assay
T6 construct: purchased R&D Systems
T6 sequence (Q9ULZ9 126-565 limits assumed): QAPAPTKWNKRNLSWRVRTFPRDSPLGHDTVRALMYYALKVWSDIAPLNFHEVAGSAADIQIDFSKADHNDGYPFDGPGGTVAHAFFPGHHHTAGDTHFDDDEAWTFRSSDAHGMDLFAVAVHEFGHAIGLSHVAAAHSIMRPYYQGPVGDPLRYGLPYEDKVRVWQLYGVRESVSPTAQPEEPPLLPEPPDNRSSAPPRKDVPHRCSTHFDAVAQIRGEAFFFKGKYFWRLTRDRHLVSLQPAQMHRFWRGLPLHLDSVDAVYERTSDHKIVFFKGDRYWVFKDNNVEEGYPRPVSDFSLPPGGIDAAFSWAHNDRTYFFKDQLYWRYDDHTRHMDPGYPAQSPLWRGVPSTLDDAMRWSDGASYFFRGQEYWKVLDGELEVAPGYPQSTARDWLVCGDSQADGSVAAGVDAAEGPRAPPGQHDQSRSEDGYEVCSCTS
Protocol: as §2, with “KP‐457 and GM‐6001 were tested for their ability to inhibit MMP‐ and ADAM‐catalyzed cleavage of substrates in a fluorescence‐based assay. Human” for “Human”

Human ADAM17 [3] = target: T1, Human ADAM17; assay: Cleavage of GPIbα-based substrate peptide by ADAM17 (LC/MS/MS); assay type: biochemical; details: read-out: IC50, inhibition of C-terminal cleavage of the GPIbα sequence by ADAM17
From the text: as §2
(1 picture or pasted object on this page, not shown here)

[4] = system: mouse ESC-derived platelets; design: method as in PMID 18663123; details: 100 µmol/l; cited from earlier work
ADAM17 = system: ADAM17; design: method as in PMID 25049354; details: cited from earlier work

## CC(NC(=O)C(NC(=O)OCc1ccccc1)C(C)C)C(=O)NC(CC(=O)O)C(=O)CF (stereo not drawn) [Z‐VAD] (Cbz-Val-Ala-Asp-CH2F; configuration not given here)
[1]
  GPIbα retention by iPSC-derived platelets, inhibitor only during platelet production phase: failed to prevent

## C[S+]([O-])c1ccc(-c2nc(-c3ccncc3)c(-c3ccc(F)cc3)[nH]2)cc1 (centres unmarked) [SB203580]
Human washed platelets
  plateau of the inhibitory effect on CCCP-induced GPIbα shedding: around half the maximum inhibition
Platelet aggregation
  effect on collagen-induced platelet aggregation: diminished
[1]
  number of CD41a+ total iPSC platelets: increased
  retention of GPIbα expression on CD41a+ iPSC-derived platelets: failed to preserve
  number of CD41a+ iPSC-derived MKs: increased
Mouse platelets
  suppression of thrombin-induced GPIbα shedding from mouse platelets compared with GM-6001: less effectively

## CNC(=O)[C@H](Cc1c[nH]c2ccccc12)NC(=O)[C@@H](CC(=O)NO)CC(C)C [GM-6001]
Human ADAM17 [2]
  IC50: 163 nM
Human ADAM10
  IC50: 642 nM
Human MMP3
  IC50: 79.8 nM
Human MMP13
  IC50: 0.435 nM
Human MMP14
  IC50: 2.96 nM
Human MMP17
  IC50: 5.16 nM
Human ADAM17 [3]
  IC50: 53.8 nM
[1]
  number of CD41a+ total iPSC platelets: no significant effect
  retention of GPIbα expression on CD41a+ iPSC-derived platelets: able to retain
  number of CD41a+ iPSC-derived MKs: no significant effect
[4]
  GPVI shedding during platelet generation from mouse ESCs: partially inhibited

## Cc1ccc(-n2nc(C(C)(C)C)cc2NC(=O)Nc2ccc(OCCN3CCOCC3)c3ccccc23)cc1 [BIRB796]
Human washed platelets
  plateau of the inhibitory effect on CCCP-induced GPIbα shedding: around half the maximum inhibition
Platelet aggregation
  effect on collagen-induced platelet aggregation: diminished
[1]; BIRB796 10 μmol/l, representative FACS plot, vehicle 48.3%
  GPIbα+ population in human iPSC-derived CD41a+ platelets: 48.0%
[1]
  number of CD41a+ total iPSC platelets: increased
  retention of GPIbα expression on CD41a+ iPSC-derived platelets: failed to preserve
  number of CD41a+ iPSC-derived MKs: increased
  GPIbα retention by iPSC-derived platelets, inhibitor only during platelet production phase: failed to prevent

## COc1ccc(S(=O)(=O)N2Cc3ccccc3C[C@@H]2C(=O)NO)cc1 [M8I]
ADAM17
  ADAM17 inhibition: potently inhibits ADAM17

## Cn1cc(C2=C(c3cn(CCCSC(=N)N)c4ccccc34)C(=O)NC2=O)c2ccccc21 [Ro31‐8220]
[1]
  GPIbα retention by iPSC-derived platelets, inhibitor only during platelet production phase: failed to prevent

## N#CC(=C(/N)Sc1ccccc1N)/C(C#N)=C(/N)Sc1ccccc1N [U0126]
[1]
  GPIbα retention by iPSC-derived platelets, inhibitor only during platelet production phase: failed to prevent

## Cc1ccc2nc(NCCN)c3ncc(C)n3c2c1 [BMS345541]
[1]
  GPIbα retention by iPSC-derived platelets, inhibitor only during platelet production phase: failed to prevent
